Reference: US20130252935A1, “Monobactams” (PFIZER INC., priority 2010, published 2013)
Converted amounts (≈) assume the structure as drawn.

Assays:
Assay type in all cases: cell-based
[1] = test system: Acinetobacter baumannii/haemolyticus AB-3167; assay: minimum inhibitory concentration (MIC) testing according to CLSI guidelines, Acinetobacter; conditions: multidrug-resistant clinical isolate AB-3167, overnight incubation, lower of duplicate values; for MIC: Acinetobacter baumannii, read-out: AB-MBT: Acinetobacter baumanii AB-3167: MIC (MstRcnt)
Outline: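 Broth dilution MIC per CLSI M7-A8/M100-S20 against multidrug-resistant clinical isolate AB-3167, using 2-fold drug dilutions and overnight incubation; MIC is the lowest concentration without visible growth. Duplicates within 2-fold reported as the lower value, with control strains and reference compounds in range.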

[2] = test system: Pseudomonas aeruginosa UC-12120; assay: minimum inhibitory concentration (MIC) testing according to CLSI guidelines, Pseudomonas aeruginosa; conditions: UC-12120, wild-type, labeled as 1091-05, overnight incubation, lower of duplicate values; for MIC: Pseudomonas aeruginosa, UC12120, read-out: AB-MBT: Pseudomonas aeruginosa 1091-05: MIC (MstRcn)
Outline: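 Broth dilution MIC per CLSI guidelines against wild-type P. aeruginosa UC-12120 (1091-05), using 2-fold drug dilutions and overnight incubation with visual reading of lowest growth-inhibiting concentration. Tested in duplicate; lower value reported when within 2-fold, with control organisms and reference compounds for quality control.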

[3] = test system: Klebsiella pneumoniae 1000-02; assay: minimum inhibitory concentration (MIC) testing according to CLSI guidelines, Klebsiella pneumoniae; conditions: ciprofloxacin-resistant, ESBL-expressing clinical isolate 1000-02, overnight incubation, lower of duplicate values; for MIC: Klebsiella pneumoniae, read-out: AB-MBT: Klebsiella pneumoniae 1000-02: MIC (MstRcnt)
Outline: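 MIC by CLSI broth dilution with 2-fold concentration steps and overnight incubation; lowest concentration visibly inhibiting growth versus drug-free control. Ciprofloxacin-resistant, ESBL-expressing clinical isolate 1000-02. Run in duplicate, lower value reported when within 2-fold, with QC organisms and reference compounds per run.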

| Structure (SMILES) | AB-MBT: Pseudomonas aeruginosa 1091-05: MIC (MstRcn) [2] [µg/mL] | AB-MBT: Klebsiella pneumoniae 1000-02: MIC (MstRcnt) [3] [µg/mL] | MIC [2] [µg/mL] | MIC [3] [µg/mL] | AB-MBT: Acinetobacter baumanii AB-3167: MIC (MstRcnt) [1] [µg/mL] | MIC [1] [µg/mL] |
| --- | --- | --- | --- | --- | --- | --- |
| CC(C)(O/N=C(\C(=O)N[C@@H]1C(=O)N(S(=O)(=O)[O-])[C@@H]1CNC(=O)c1cc(-c2cc(=O)c(O)cn2O)no1)c1csc(N)n1)C(=O)[O-].[Na+].[Na+] [Example 15, 2-({[(1Z)-1-(2-amino-1,3-thiazol-4-yl)-2-({(2R,3S)-2-[({[3-(1,5-dihydroxy-4-oxo-1,4-dihydropyridin-2-yl)isoxazol-5-yl]carbonyl}amino)methyl]-4-oxo-1-sulfoazetidin-3-yl}amino)-2-oxoethylidene]amino}oxy)-2-methylpropanoic acid, bis sodium salt] | 0.250 | 1.00 | – | – | 0.250 | – |
| CC(C)(O/N=C(\C(=O)N[C@@H]1C(=O)N(S(=O)(=O)O)[C@@H]1CNS(=O)(=O)NCc1cc(=O)c(O)cn1O)c1csc(N)n1)C(=O)O [Example 37, 2-({[(1Z)-1-(2-amino-1,3-thiazol-4-yl)-2-{[(2R,3S)-2-{[({[(1,5-dihydroxy-4-oxo-1,4-dihydropyridin-2-yl)methyl]amino}sulfonyl)amino]methyl}-4-oxo-1-sulfoazetidin-3-yl]amino}-2-oxoethylidene]amino}oxy)-2-methylpropanoic acid] | – | – | 1 (≈ 1.5 µM) | 4 (≈ 5.98 µM) | – | 2 (≈ 2.99 µM) |
| CC(C)(O/N=C(\C(=O)N[C@@H]1C(=O)N(S(=O)(=O)O)[C@@H]1CNC(=O)c1ccnc(-c2cc(=O)c(O)cn2O)n1)c1csc(N)n1)C(=O)O [Example 23, 2-({[(1Z)-1-(2-amino-1,3-thiazol-4-yl)-2-({(2R,3S)-2-[({[2-(1,5-dihydroxy-4-oxo-1,4-dihydropyridin-2-yl)pyrimidin-4-yl]carbonyl}amino)methyl]-4-oxo-1-sulfoazetidin-3-yl}amino)-2-oxoethylidene]amino}oxy)-2-methylpropanoic acid] | – | – | 1 (≈ 1.47 µM) | 0.25 (≈ 0.367 µM) | – | 0.25 (≈ 0.367 µM) |
| CC(C)(O/N=C(\C(=O)N[C@@H]1C(=O)N(S(=O)(=O)O)[C@@H]1CNS(=O)(=O)c1ccc(C(=O)NCc2cc(=O)c(O)cn2O)cc1)c1csc(N)n1)C(=O)O [Example 48, 2-({[(1Z)-1-(2-amino-1,3-thiazol-4-yl)-2-{[(2R,3S)-2-({[(4-{[(1,5-dihydroxy-4-oxo-1,4-dihydropyridin-2-yl)methyl]carbamoyl}phenyl)sulfonyl]amino}methyl)-4-oxo-1-sulfoazetidin-3-yl]amino}-2-oxoethylidene]amino}oxy)-2-methylpropanoic acid] | – | – | 1 (≈ 1.29 µM) | 1 (≈ 1.29 µM) | – | 2 (≈ 2.59 µM) |
| CC(C)(O/N=C(\C(=O)N[C@@H]1C(=O)N(S(=O)(=O)O)[C@@H]1CNC(=O)Nc1cc(=O)c(O)c[nH]1)c1csc(N)n1)C(=O)O [Example 57, 2-({[(1Z)-1-(2-amino-1,3-thiazol-4-yl)-2-{[(2R,3S)-2-({[(5-hydroxy-4-oxo-1,4-dihydropyridin-2-yl)carbamoyl]amino}methyl)-4-oxo-1-sulfoazetidin-3-yl]amino}-2-oxoethylidene]amino}oxy)-2-methylpropanoic acid] | – | – | 2 (≈ 3.32 µM) | 4 (≈ 6.64 µM) | – | 1 (≈ 1.66 µM) |
| Nc1nc(/C(=N/OC2(C(=O)O)CCC2)C(=O)N[C@@H]2C(=O)N(S(=O)(=O)O)[C@@H]2CNC(=O)c2ccc(CNC(=O)c3cc(O)c(O)cn3)cc2)cs1 [Example 61, 1-({[(1Z)-1-(2-amino-1,3-thiazol-4-yl)-2-{[(2R,3S)-2-({[4-({[(4,5-dihydroxypyridin-2-yl)carbonyl]amino}methyl)benzoyl]amino}methyl)-4-oxo-1-sulfoazetidin-3-yl]amino}-2-oxoethylidene]amino}oxy)cyclobutanecarboxylic acid] | – | – | 32 (≈ 43.7 µM) | 2 (≈ 2.73 µM) | – | 1 (≈ 1.36 µM) |

The remaining compounds from weak to strong by MIC [2], led by results:

| AB-MBT: Pseudomonas aeruginosa 1091-05: MIC (MstRcn) [2] [µg/mL] | AB-MBT: Klebsiella pneumoniae 1000-02: MIC (MstRcnt) [3] [µg/mL] | MIC [2] [µg/mL] | MIC [3] [µg/mL] | Structure (SMILES) | AB-MBT: Acinetobacter baumanii AB-3167: MIC (MstRcnt) [1] [µg/mL] | MIC [1] [µg/mL] |
| --- | --- | --- | --- | --- | --- | --- |
| – | – | 0.5 (≈ 0.679 µM) | 1 (≈ 1.36 µM) | CC(C)(O/N=C(\C(=O)N[C@@H]1C(=O)N(S(=O)(=O)O)[C@@H]1CNC(=O)Cc1cccc(NC(=O)c2cc(=O)c(O)cn2O)c1)c1csc(N)n1)C(=O)O [Example 56, 2-({[(1Z)-1-(2-amino-1,3-thiazol-4-yl)-2-{[(2R,3S)-2-({[(3-{[(1,5-dihydroxy-4-oxo-1,4-dihydropyridin-2-yl)carbonyl]amino}phenyl)acetyl]amino}methyl)-4-oxo-1-sulfoazetidin-3-yl]amino}-2-oxoethylidene]amino}oxy)-2-methylpropanoic acid] | – | 1 (≈ 1.36 µM) |
| – | – | 0.5 (≈ 0.692 µM) | 1 (≈ 1.38 µM) | CC(C)(O/N=C(\C(=O)N[C@@H]1C(=O)N(S(=O)(=O)O)[C@@H]1CNC(=O)c1ccc(NC(=O)c2cc(=O)c(O)cn2O)cc1)c1csc(N)n1)C(=O)O [Example 52, 2-({[(1Z)-1-(2-amino-1,3-thiazol-4-yl)-2-{[(2R,3S)-2-{[(4-{[(1,5-dihydroxy-4-oxo-1,4-dihydropyridin-2-yl)carbonyl]amino}benzoyl)amino]methyl}-4-oxo-1-sulfoazetidin-3-yl]amino}-2-oxoethylidene]amino}oxy)-2-methylpropanoic acid] | – | 0.5 (≈ 0.692 µM) |
| – | – | 0.25 (≈ 0.406 µM) | 0.06 (≈ 0.0975 µM) | Nc1nc(/C(=N/OC2(C(=O)O)CCC2)C(=O)N[C@@H]2C(=O)N(S(=O)(=O)O)[C@@H]2CNC(=O)c2cc(=O)c(O)cn2O)cs1 [Example 58, 1-({[(1Z)-1-(2-amino-1,3-thiazol-4-yl)-2-{[(2R,3S)-2-({[(1,5-dihydroxy-4-oxo-1,4-dihydropyridin-2-yl)carbonyl]amino}methyl)-4-oxo-1-sulfoazetidin-3-yl]amino}-2-oxoethylidene]amino}oxy)cyclobutanecarboxylic acid] | – | 0.25 (≈ 0.406 µM) |
| – | – | 0.25 (≈ 0.373 µM) | 0.5 (≈ 0.746 µM) | CC(C)(O/N=C(\C(=O)N[C@@H]1C(=O)N(S(=O)(=O)O)[C@@H]1CNC(=O)c1cc(-c2cc(=O)c(O)cn2O)on1)c1csc(N)n1)C(=O)O [Example 16, 2-({[(1Z)-1-(2-amino-1,3-thiazol-4-yl)-2-({(2R,3S)-2-[({[5-(1,5-dihydroxy-4-oxo-1,4-dihydropyridin-2-yl)isoxazol-3-yl]carbonyl}amino)methyl]-4-oxo-1-sulfoazetidin-3-yl}amino)-2-oxoethylidene]amino}oxy)-2-methylpropanoic acid] | – | 1 (≈ 1.49 µM) |
| – | – | 0.25 (≈ 0.372 µM) | 0.25 (≈ 0.372 µM) | CC(C)(O/N=C(\C(=O)N[C@@H]1C(=O)N(S(=O)(=O)O)[C@@H]1Cn1cc(COCc2cc(=O)c(O)cn2O)nn1)c1csc(N)n1)C(=O)O [Example 1, 2-({[(1Z)-1-(2-amino-1,3-thiazol-4-yl)-2-({(2R,3S)-2-[(4-{[(1,5-dihydroxy-4-oxo-1,4-dihydropyridin-2-yl)methoxy]methyl}-1H-1,2,3-triazol-1-yl)methyl]-4-oxo-1-sulfoazetidin-3-yl}amino)-2-oxoethylidene]amino}oxy)-2-methylpropanoic acid] | – | 0.5 (≈ 0.744 µM) |
| – | – | 0.25 (≈ 0.363 µM) | 1 (≈ 1.45 µM) | CC(C)(O/N=C(\C(=O)N[C@@H]1C(=O)N(S(=O)(=O)O)[C@@H]1CNC(=O)CNC(=O)NCc1cc(=O)c(O)cn1O)c1csc(N)n1)C(=O)O [Example 53, 2-({[(1Z)-1-(2-amino-1,3-thiazol-4-yl)-2-{[(2R,3S)-2-{[(N-{[(1,5-dihydroxy-4-oxo-1,4-dihydropyridin-2-yl)methyl]carbamoyl}glycyl)amino]methyl}-4-oxo-1-sulfoazetidin-3-yl]amino}-2-oxoethylidene]amino}oxy)-2-methylpropanoic acid] | – | 0.25 (≈ 0.363 µM) |
| – | – | 0.25 (≈ 0.374 µM) | 1 (≈ 1.5 µM) | N#C/N=C(\NCc1cc(=O)c(O)cn1O)NC[C@@H]1[C@H](NC(=O)/C(=N\OC2(C(=O)O)CCC2)c2csc(N)n2)C(=O)N1S(=O)(=O)O [Example 63, 1-({[(1Z)-1-(2-amino-1,3-thiazol-4-yl)-2-{[(2R,3S)-2-({[(Z)-(cyanoimino){[(1,5-dihydroxy-4-oxo-1,4-dihydropyridin-2-yl)methyl]amino}methyl]amino}methyl)-4-oxo-1-sulfoazetidin-3-yl]amino}-2-oxoethylidene]amino}oxy)cyclobutanecarboxylic acid] | – | 0.5 (≈ 0.748 µM) |
| – | – | 0.125 | 4 | CC(C)(O/N=C(\C(=O)N[C@@H]1C(=O)N(S(=O)(=O)[O-])[C@@H]1CNC(=O)OCc1cc(=O)c(O)cn1O)c1csc(N)n1)C(=O)[O-].[Na+].[Na+] [Example 5, disodium 2-({[(1Z)-1-(2-amino-1,3-thiazol-4-yl)-2-({(2R,3S)-2-[({[(1,5-dihydroxy-4-oxo-1,4-dihydropyridin-2-yl)methoxy]carbonyl}amino)methyl]-4-oxo-1-sulfonatoazetidin-3-yl}amino)-2-oxoethylidene]amino}oxy)-2-methylpropanoate] | – | 1 |
| – | – | 0.06 (≈ 0.091 µM) | 0.5 (≈ 0.758 µM) | CC(C)(O/N=C(\C(=O)N[C@@H]1C(=O)N(S(=O)(=O)O)[C@@H]1CNC(=O)C(=O)NCC1=CC(=O)C(O)=CC1O)c1csc(N)n1)C(=O)O (stereo partly drawn) [Example 41, 2-({[(1Z)-1-(2-amino-1,3-thiazol-4-yl)-2-{[(2R,3S)-2-({[{[(4,6-dihydroxy-3-oxocyclohexa-1,4-dien-1-yl)methyl]amino}(oxo)acetyl]amino}methyl)-4-oxo-1-sulfoazetidin-3-yl]amino}-2-oxoethylidene]amino}oxy)-2-methylpropanoic acid] | – | 0.25 (≈ 0.379 µM) |
